{"source": "patent US9936622B2", "about": "“Apparatus for applying a pesticide to perennial crops” (Sumitomo Chemical Company, Limited, priority 2007, dated 2018)", "key": {"[1]": {"system": "psyllids Creiis lituratus", "test": "Field trial, subsurface application for the control of psyllids (lerp counts) on Eucalyptus dunni", "assay_type": "in vivo", "conditions": "for Mean lerp count per 5 terminal leaflets: subsurface application", "excerpt": "(§1) Near Casino, northern New South Wales, Australia in the 2006-2007 season, chlothianidin as a suspension (200 g/L) in water at 0.5, 1.0 and 1.5 grams of active ingredient per tree (gai/tree) was applied to 2 year old Eucalyptus dunni trees for the control of psyllids Creiis lituratus during winter and chrysomelid leaf beetles during summer.\n(§2) A single application below the soil surface was made by coulter 20-40 cm from the base of the stem of the trees and to a depth of 10-15 cm in 128 L of water per hectare. Psyllid lerp counts were taken 141 and 303 DAT (days after treatment). Tree height was measured at treatment and then at 303 DAT. Diameter at breast height was measured at 303 DAT."}, "[2]": {"system": "2 year old Eucalyptus dunni trees", "test": "Field trial, effect of psyllid control on growth of E. dunni (tree height, diameter, wood volume)", "assay_type": "in vivo", "conditions": "for Mean increase in tree height: 0-303 DAT", "excerpt": "as §1, §2\nThe difference in volume between the untreated and the 1 gai/tree treatment can be calculated over 303 days"}}, "data": [{"smiles": "CN/C(=N\\[N+](=O)[O-])NCc1cnc(Cl)s1", "note": "[Clothianidin, clothianidin]", "values": [{"measurement": "Mean lerp count per 5 terminal leaflets", "setting": "[1]; 0.5 gai/tree, Mar. 19, 2007 (303 DAT)", "value": 3.50, "unit": "B"}, {"measurement": "Mean lerp count per 5 terminal leaflets", "setting": "[1]; 0.5 gai/tree, Oct. 7, 2006 (141 DAT)", "value": 2.33, "unit": "b"}, {"measurement": "Mean lerp count per 5 terminal leaflets", "setting": "[1]; 1 gai/tree, Mar. 19, 2007 (303 DAT)", "value": 2.06, "unit": "B"}, {"measurement": "Mean lerp count per 5 terminal leaflets", "setting": "[1]; 1 gai/tree, Oct. 7, 2006 (141 DAT)", "value": 0.71, "unit": "c"}, {"measurement": "Mean lerp count per 5 terminal leaflets", "setting": "[1]; 1.5 gai/tree, Mar. 19, 2007 (303 DAT)", "value": 0.69, "unit": "B"}, {"measurement": "Mean lerp count per 5 terminal leaflets", "setting": "[1]; 1.5 gai/tree, Oct. 7, 2006 (141 DAT)", "value": 0.58, "unit": "c"}, {"measurement": "psyllid lerp counts", "setting": "[1]; sub-surface application at 0.5 to 1.5 gai/tree, up to 303 DAT", "value": "significantly reduced"}, {"measurement": "Mean increase in tree height", "setting": "[2]; 0.5 gai/tree", "value": 198, "unit": "ab cm"}, {"measurement": "DBM (diameter at breast height, 1.3 m above ground level)", "setting": "[2]; 0.5 gai/tree, 303 DAT", "value": 5.44, "unit": "cm"}, {"measurement": "Mean tree height", "setting": "[2]; 0.5 gai/tree, 303 DAT", "value": 500, "unit": "bc cm"}, {"measurement": "Mean increase in tree height", "setting": "[2]; 1 gai/tree", "value": 228, "unit": "a cm"}, {"measurement": "DBM (diameter at breast height, 1.3 m above ground level)", "setting": "[2]; 1 gai/tree, 303 DAT", "value": 5.91, "unit": "cm"}, {"measurement": "Mean tree height", "setting": "[2]; 1 gai/tree, 303 DAT", "value": 526, "unit": "b cm"}, {"measurement": "Increase in wood volume", "setting": "[2]; 1 gai/tree, 303 DAT, versus untreated", "value": 8.5, "unit": "m^3/ha"}, {"measurement": "Mean tree diameter", "setting": "[2]; 1 gai/tree, over 303 days", "value": 5.91, "unit": "cm"}, {"measurement": "Mean tree height", "setting": "[2]; 1 gai/tree, over 303 days", "value": 5.26, "unit": "m"}, {"measurement": "Mean wood vol/ha", "setting": "[2]; 1 gai/tree, over 303 days", "value": 22.2, "unit": "m^3"}, {"measurement": "Mean increase in tree height", "setting": "[2]; 1.5 gai/tree", "value": 229, "unit": "a cm"}, {"measurement": "DBM (diameter at breast height, 1.3 m above ground level)", "setting": "[2]; 1.5 gai/tree, 303 DAT", "value": 6.67, "unit": "cm"}, {"measurement": "Mean tree height", "setting": "[2]; 1.5 gai/tree, 303 DAT", "value": 594, "unit": "a cm"}, {"measurement": "growth of E. dunni", "setting": "[2]; sub-surface application at 0.5 to 1.5 gai/tree, high psyllid pressure, up to 303 DAT", "value": "improved"}]}]}
